# Assays:
# [1] = test system: non-small cell lung cancer; conditions: NSCLC patients with activating mutations in the EGFR tyrosine kinase domain; cited from earlier work
# [2] = test system: cancer cells with EGFRvIII expression; conditions: literature reports; cited from earlier work
# NIH 3T3 cells = experiment: Western blot of phosphorylation of GFP-tagged EGFRΔ[…] versus WT-EGFR in NIH 3T3 cells; format: cell-based; conditions: no ligand, FIG. 7A
# Source text: Dafna Bar-Sagi). Then, we subcloned the novel extracellular deletion mutant Δ[…] into this vector. […]
# SY5Y = experiment: IP-western of phosphorylation status of GFP-tagged EGFR mutants in SY5Y cells; format: cell-based, human; conditions: anti-GFP IP, higher than EGFRvIII, FIG. 7D
# Source text: Then, we prepared RNA and protein lysates from the transfected cells. We confirmed the identity of the lysates by RT-PCR (FIG. 7C). Next, we evaluated the phosphorylation status of both mutants. Because SY5Y cells expressed endogenous WT-EGFR (21, 22), we used anti-GFP antibody to immunoprecipitate the mutant EGFR polypeptides.
compound,measurement,setting,value
COc1cc2ncnc(Nc3ccc(F)c(Cl)c3)c2cc1OCCCN1CCOCC1 [gefitinib],patient response,[1],dramatic response
C#Cc1cccc(Nc2ncnc3cc(OCCOC)c(OCCOC)cc23)c1 [erlotinib],sensitivity of cancer cells with EGFRvIII expression,[2],not as sensitive
"EGFRΔ768: truncated EGFR, in-frame deletion from nucleotide 102 of exon 2 to nucleotide 869 of exon 7",phosphorylation in the absence of ligand (versus WT-EGFR),NIH 3T3 cells,constitutively active
same,"autophosphorylation level, difference versus EGFRvIII",SY5Y,~40%

# From patent US8962808B2, “EGFR-related polypeptides and methods of use” (The Research Foundation for the State University of New York, priority 2010, dated 2015)
